Experiment [1] relates to Acinetobacter baumannii KCTC 1017. The format is cell-based. The note with it: KCTC 1017. The source says:
(§1) To compare the antimicrobial activity of the peptides prepared in <Example 1>, the minimum inhibitory concentration (MIC), […] measured. Here, the minimal inhibitory concentration (MIC) refers to the lowest concentration of a substance that prevents visible bacterial growth.
(§2) Specifically, the bacterial strains listed in Table 2 below were obtained and cultured in media suitable for each strain until the mid-log phase. The cultures were then diluted to a concentration of 2×10^4 cells/100 μL and prepared in microtiter plates (Nunc, USA). Subsequently, serial 2-fold dilutions of the peptides prepared in Example 1 were prepared, and 10 μL of each dilution was added to the wells, and the plates were incubated at 37° C. for 18 hours. Absorbance at 600 nm was measured using a microtiter plate reader (Merck ELISA reader, Germany) to determine the MIC values for each bacterial strain. The parent peptide dCATH was used as a control.

Experiment [2] relates to Bacillus cereus KCTC 2508. It counts as cell-based.
Excerpt: as §1, §2

For experiment [3], the system named is Escherichia coli ATCC 25922. The format is cell-based.
Excerpt: as §1, §2

Experiment [4] has as its system Listeria monocytogenes KCTC 3710. The format is cell-based.
Excerpt: as §1, §2

The test system of experiment [5] is Pseudomonas aeruginosa ATCC 27853. It counts as cell-based.
Excerpt: as §1, §2

Experiment [6] deals with Staphylococcus aureus ATCC 25923. It counts as cell-based. As to conditions: ATCC 25923.
Excerpt: as §1, §2

Experiment [7] concerns Acinetobacter baumannii_isolate 1 (antibiotic-resistant). The format is cell-based, Acinetobacter baumannii. The note with it: isolate 1 (antibiotic-resistant). An outline of the steps: (§3)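 MIC by broth microdilution: 2×10^4 cells/100 μL mid-log inoculum, 2-fold serial peptide dilutions, 18 h at 37° C, OD600 read-out. Parent peptide dCATH as control.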
The test system of experiment [8] is Acinetobacter baumannii_isolate 10 (antibiotic-resistant). The format is cell-based, Acinetobacter baumannii. As to conditions: isolate 10 (antibiotic-resistant). The method in brief: as §3
Experiment [9] has as its system Acinetobacter baumannii_isolate 14 (antibiotic-resistant). It counts as cell-based, Acinetobacter baumannii. As to conditions: isolate 14 (antibiotic-resistant). An outline of the steps: as §3
Experiment [10] concerns Acinetobacter baumannii_isolate 24 (antibiotic-resistant). The format is cell-based, Acinetobacter baumannii. As to conditions: isolate 24 (antibiotic-resistant). An outline of the steps: as §3
Experiment [11] deals with Acinetobacter baumannii_isolate 25 (antibiotic-resistant). It counts as cell-based, Acinetobacter baumannii. As to conditions: isolate 25 (antibiotic-resistant). An outline of the steps:
as §3

In experiment [12] the test system is Acinetobacter baumannii_isolate 26 (antibiotic-resistant). It counts as cell-based, Acinetobacter baumannii. The note with it: isolate 26 (antibiotic-resistant). An outline of the steps:
as §3

Experiment [13] concerns Acinetobacter baumannii_isolate 7 (antibiotic-resistant). It counts as cell-based, Acinetobacter baumannii. As to conditions: isolate 7 (antibiotic-resistant). An outline of the steps:
as §3

Experiment [14] concerns Acinetobacter baumannii_isolate16 (antibiotic-resistant). It counts as cell-based, Acinetobacter baumannii. As to conditions: isolate16 (antibiotic-resistant). An outline of the steps: as §3
Experiment [15] concerns Acinetobacter baumannii_isolate21 (antibiotic-resistant). The format is cell-based, Acinetobacter baumannii. As to conditions: isolate21 (antibiotic-resistant). The method in brief: as §3

In brackets after ≈: the same amount, converted by molar mass. Peptide text beside a SMILES is read from it.

Take `CC[C@H](C)[C@H](NC(=O)[C@H](C)NC(=O)[C@H](CC(C)C)NC(=O)[C@@H]1CCCN1C(=O)[C@@H](NC(=O)[C@H](CC(C)C)NC(=O)[C@H](CCC(N)=O)NC(=O)[C@H](C)NC(=O)[C@H](Cc1ccccc1)NC(=O)[C@H](CCCNC(=N)N)NC(=O)[C@@H](N)CCCCN)C(C)C)C(=O)N[C@@H](CCCCN)C(=O)N[C@H](C(=O)N[C@@H](Cc1ccc(O)cc1)C(=O)N[C@@H](CCCNC(=N)N)C(=O)N[C@@H](C)C(=O)N[C@@H](Cc1c[nH]c2ccccc12)C(=O)N[C@@H](CCCCN)C(=O)N[C@@H](CCCNC(=N)N)C(=O)N[C@@H](CCCNC(=N)N)C(N)=O)[C@@H](C)CC` [dCATH-A2] (H-KRFAQLVPLAIKIYRAWKRR-NH2; N-terminus assumed): the minimal inhibitory concentration (MIC) turned out to be 1 µM (≈ 2.51 µg/mL) in experiment [1]; 1 µM (≈ 2.51 µg/mL) in experiment [2]; 2 µM (≈ 5.03 µg/mL) in [3]; 2 µM (≈ 5.03 µg/mL) in experiment [4]; 2 µM (≈ 5.03 µg/mL) in experiment [5]; 1 µM (≈ 2.51 µg/mL) in experiment [6]. For the same molecule, the minimum inhibitory concentration (MIC) in [7] amounted to 2 µM (≈ 5.03 µg/mL); in experiment [8], 2 µM (≈ 5.03 µg/mL); in [9], 1 µM (≈ 2.51 µg/mL); in [10], 1 µM (≈ 2.51 µg/mL); in experiment [11], 1 µM (≈ 2.51 µg/mL); in experiment [12] it was 2 µM (≈ 5.03 µg/mL). The minimum inhibitory concentration (MIC) in [13], in experiment [14] and in experiment [15] was 1 µM (≈ 2.51 µg/mL) throughout.
For `CC[C@H](C)[C@H](NC(=O)[C@H](C)NC(=O)[C@H](CC(C)C)NC(=O)[C@@H]1CCCN1C(=O)[C@@H](NC(=O)[C@H](CC(C)C)NC(=O)[C@H](CCC(N)=O)NC(=O)[C@H](C)NC(=O)[C@H](C)NC(=O)[C@H](CCCNC(=N)N)NC(=O)[C@@H](N)CCCCN)C(C)C)C(=O)N[C@@H](CCCCN)C(=O)N[C@H](C(=O)N[C@@H](Cc1ccc(O)cc1)C(=O)N[C@@H](CCCNC(=N)N)C(=O)N[C@@H](C)C(=O)N[C@@H](Cc1c[nH]c2ccccc12)C(=O)N[C@@H](CCCCN)C(=O)N[C@@H](CCCNC(=N)N)C(=O)N[C@@H](CCCNC(=N)N)C(N)=O)[C@@H](C)CC` [dCATH-A3] (H-KRAAQLVPLAIKIYRAWKRR-NH2; N-terminus assumed), the minimal inhibitory concentration (MIC) in experiment [1] was 1 µM (≈ 2.44 µg/mL); in experiment [2] it was 2 µM (≈ 4.87 µg/mL); in experiment [3], 2 µM (≈ 4.87 µg/mL); in experiment [4] it was 2 µM (≈ 4.87 µg/mL); in [5] it was 2 µM (≈ 4.87 µg/mL); in experiment [6], 2 µM (≈ 4.87 µg/mL). Further, the minimum inhibitory concentration (MIC) in [7] was 1 µM (≈ 2.44 µg/mL); in experiment [8], 2 µM (≈ 4.87 µg/mL); in experiment [9], 2 µM (≈ 4.87 µg/mL); in experiment [10], 1 µM (≈ 2.44 µg/mL); in experiment [11] it was 1 µM (≈ 2.44 µg/mL); in [12] it was 1 µM (≈ 2.44 µg/mL). For the same molecule, the MIC in experiment [13] is 1 µM (≈ 2.44 µg/mL); in experiment [14], 1 µM (≈ 2.44 µg/mL); in [15], 4 µM (≈ 9.75 µg/mL).
`CC[C@H](C)[C@H](NC(=O)[C@H](C)NC(=O)[C@H](CCCCN)NC(=O)[C@H](CCCCN)NC(=O)[C@@H](NC(=O)[C@H](CC(C)C)NC(=O)[C@H](CCC(N)=O)NC(=O)[C@H](C)NC(=O)[C@H](C)NC(=O)[C@H](CCCNC(=N)N)NC(=O)[C@@H](N)CCCCN)C(C)C)C(=O)N[C@@H](CCCCN)C(=O)N[C@H](C(=O)N[C@@H](Cc1ccc(O)cc1)C(=O)N[C@@H](CCCNC(=N)N)C(=O)N[C@@H](C)C(=O)N[C@@H](Cc1c[nH]c2ccccc12)C(=O)N[C@@H](CCCCN)C(=O)N[C@@H](CCCNC(=N)N)C(=O)N[C@@H](CCCNC(=N)N)C(N)=O)[C@@H](C)CC` [dCATH-A5] (H-KRAAQLVKKAIKIYRAWKRR-NH2; N-terminus assumed): the MIC in [1], in [2], in [3], in [4], in experiment [5] and in experiment [6] was 1 µM (≈ 2.48 µg/mL) each time. Further, the minimal inhibitory concentration (MIC) in [7] came to 1 µM (≈ 2.48 µg/mL); in [8], 1 µM (≈ 2.48 µg/mL); in experiment [9] it was 1 µM (≈ 2.48 µg/mL); in experiment [10] it was 2 µM (≈ 4.97 µg/mL); in experiment [11], 1 µM (≈ 2.48 µg/mL); in experiment [12], 1 µM (≈ 2.48 µg/mL). Besides, the MIC in experiment [13], in experiment [14] and in experiment [15] was 1 µM (≈ 2.48 µg/mL) each time.
Regarding `CC[C@H](C)[C@H](NC(=O)[C@H](C)NC(=O)[C@H](CC(C)C)NC(=O)[C@@H]1CCCN1C(=O)[C@@H](NC(=O)[C@H](CC(C)C)NC(=O)[C@H](CCC(N)=O)NC(=O)[C@H](Cc1c[nH]c2ccccc12)NC(=O)[C@H](C)NC(=O)[C@H](CCCNC(=N)N)NC(=O)[C@@H](N)CCCCN)C(C)C)C(=O)N[C@@H](CCCCN)C(=O)N[C@H](C(=O)N[C@@H](Cc1ccc(O)cc1)C(=O)N[C@@H](CCCNC(=N)N)C(=O)N[C@@H](C)C(=O)N[C@@H](Cc1c[nH]c2ccccc12)C(=O)N[C@@H](CCCCN)C(=O)N[C@@H](CCCNC(=N)N)C(=O)N[C@@H](CCCNC(=N)N)C(N)=O)[C@@H](C)CC` [dCATH-A1] (H-KRAWQLVPLAIKIYRAWKRR-NH2; N-terminus assumed), the minimum inhibitory concentration (MIC) was 2 µM (≈ 5.1 µg/mL) in experiment [1]; 2 µM (≈ 5.1 µg/mL) in [2]; 2 µM (≈ 5.1 µg/mL) in experiment [3]; 2 µM (≈ 5.1 µg/mL) in [4]; 4 µM (≈ 10.2 µg/mL) in experiment [5]; 2 µM (≈ 5.1 µg/mL) in [6]. Further, the minimal inhibitory concentration (MIC) in experiment [7], in experiment [8], in [9], in experiment [10], in [11] and in experiment [12] was 2 µM (≈ 5.1 µg/mL) in each case. Also, the minimal inhibitory concentration (MIC) in experiment [13], in experiment [14] and in [15] was 2 µM (≈ 5.1 µg/mL) in each case.
As to `CC[C@H](C)[C@H](NC(=O)[C@H](C)NC(=O)[C@H](CC(C)C)NC(=O)[C@H](CCCCN)NC(=O)[C@@H](NC(=O)[C@H](CC(C)C)NC(=O)[C@H](CCC(N)=O)NC(=O)[C@H](C)NC(=O)[C@H](C)NC(=O)[C@H](CCCNC(=N)N)NC(=O)[C@@H](N)CCCCN)C(C)C)C(=O)N[C@@H](CCCCN)C(=O)N[C@H](C(=O)N[C@@H](Cc1ccc(O)cc1)C(=O)N[C@@H](CCCNC(=N)N)C(=O)N[C@@H](C)C(=O)N[C@@H](Cc1c[nH]c2ccccc12)C(=O)N[C@@H](CCCCN)C(=O)N[C@@H](CCCNC(=N)N)C(=O)N[C@@H](CCCNC(=N)N)C(N)=O)[C@@H](C)CC` [dCATH-A4] (H-KRAAQLVKLAIKIYRAWKRR-NH2; N-terminus assumed), the MIC in experiment [1], in experiment [2], in experiment [3], in [4], in experiment [5] and in experiment [6] was 2 µM (≈ 4.94 µg/mL) each time. The MIC in experiment [7] was 2 µM (≈ 4.94 µg/mL); in experiment [8], 4 µM (≈ 9.87 µg/mL); in [9], 2 µM (≈ 4.94 µg/mL); in [10], 2 µM (≈ 4.94 µg/mL); in experiment [11] it was 2 µM (≈ 4.94 µg/mL); in [12] it was 2 µM (≈ 4.94 µg/mL). The MIC in [13], in experiment [14] and in experiment [15] was 2 µM (≈ 4.94 µg/mL) throughout.

(Values after US20260217765A1, “NOVEL ANTIMICROBIAL PEPTIDE DESIGNED FROM DUCK-DERIVED ANTIMICROBIAL PEPTIDE ANDUSE THEREOF” (INDUSTRY-ACADEMIC COOPERATION FOUNDATION, CHOSUN UNIVERSITY, priority 2023, published 2026).)
